# Results as given in paper PMC7168327, “Designed Antimicrobial Peptides for Topical Treatment of Antibiotic Resistant Acne Vulgaris” (Antibiotics, 2020).
# Where “and” joins values, the source holds several entries; their conditions need not be identical. Identical values can stand only once. Like-named read-outs stand apart in the source and are kept apart here. Bridge positions count the residues as written; N and C are the ends. Square brackets hold non-standard residues; d marks the D form. Peptide text beside a SMILES is read from it. Orn = NCCC[C@H](N)C(=O)O
# Tests used:
# C. acnes ATCC6919 [1] = details: cited from earlier work
# Text: (§1) Table 1 Growth Inhibition of dAMPs (MICs, µg/mL) against C. acnes Isolates. | column: Antibiotic Sensitivity / Tetra ^#; Antibiotic Sensitivity / Ery ^#; Antibiotic Sensitivity / Clind ^#
# C. acnes HL038PA1 [2] = details: cited from earlier work
# Text: as §1
# C. acnes ATCC11827 [3] = details: cited from earlier work
# Text: as §1
# C. acnes HL013PA1 [4] = details: cited from earlier work
# Text: as §1
# C. acnes HL072PA1 [5] = details: cited from earlier work
# Text: as §1
# C. acnes HL043PA2 [6] = details: cited from earlier work
# Text: as §1
# C. acnes HL045PA1 [7] = details: cited from earlier work
# Text: as §1
# C. acnes HL043PA1 [8] = details: cited from earlier work
# Text: as §1
# C. acnes HL056PA1 [9] = details: cited from earlier work
# Text: as §1
# C. acnes HL007PA1 [10] = details: cited from earlier work
# Text: as §1
# C. acnes HL053PA1 [11] = details: cited from earlier work
# Text: as §1
# C. acnes HL082PA2 [12] = details: cited from earlier work
# Text: as §1
# [13] = system: C. acnes HL043PA2 compared to human keratinocytes; format: cell-based
# Description: In evaluating the clinical utility of each of the candidate dAMPs for C. acnes treatment, the Therapeutic Index was determined. The Therapeutic Index is defined as the ratio of concentration at which the dAMP is active against the prokaryotic C. acnes pathogen without inducing cytotoxic damage to the surrounding mammalian cells. The EC10 and EC50 doses, defined as the concentrations required to kill 10% and 50% respectively of human keratinocytes following 8 h incubation with each of the Riptide dAMPs, are tabulated and graphed in Table 2 and Figure 3, respectively. The larger the Therapeutic Index, the greater the specificity of the dAMP for destroying C. acnes cells.
# (§2) Single colonies were inoculated in Reinforced Clostridium Medium (RCM) broth supplemented with sodium thioglycolate and incubated at 37 °C, with shaking at 200 rpm, for 2 or 3 days to reach logarithmic growth (OD600nm = 1.0). Each C. acnes (1 × 10^6 CFU per mL) was incubated with dAMP or clindamycin at two-fold serial dilutions (0.5–32 μg per mL) in RCM on a 96-well microplate for 48 h. Three replicas were included for each test article concentration. Bacterial growth was measured by optical density at 600 nm to determine the MIC for each dAMP applied.
# (§3) Noninvasive and real-time monitoring of mammalian cytotoxicity to assess the potential skin toxicity of the dAMPs was evaluated using bioluminescent human immortalized keratinocytes (HaCaT, AddexBio, San Diego, CA, USA). The bioluminescent variant of HaCaT was constructed by transfection with a luciferase gene (RediFect Red-Fluc-Puromycin, Cat# CL596002). Keratinocytes (1 × 10^4 cells, 100 μL) were plated in 96-well black-walled plates. The candidate dAMPs were 2-fold serially diluted from 1024 µg/mL in growth medium supplemented with 150 µg/mL D-luciferin. Each concentration was performed in triplicate, with the final volume being 200 μL. Imaging was performed at select times (0, 15, and 30 min and 1, 3, 5, and 8 h) after the addition of the dAMP, and compared to concurrently run vehicle-control, using an IVIS Lumina imaging system (Caliper Life Sciences, Inc., Hopkinton, MA, USA). For imaging, the 96-well plate was positioned on the stage (12.5-cm field of view), with an open emission filter, binning of 4, and f-stop 1 and a 1-min exposure time. Data analysis was performed using the Living Image software program (version 4.3, Caliper Life Sciences, Inc.). The dAMP concentrations required to kill 10% and 50% of keratinocytes were determined using GraphPad Prism 7 (GraphPad Software, San Diego, CA, USA).
# [14] = system: bioluminescent human immortalized keratinocytes (HaCaT); experiment: Mammalian cytotoxicity, bioluminescent human keratinocytes; format: cell-based
# Description: as §3
# C. acnes ATCC6919 [15] = format: cell-based, Cutibacterium acnes
# Description: (§4) The ten antibiotic resistant C. acnes clinical isolates were acquired from BEI resources with the two reference strains obtained from American Type Culture Collection (ATCC, Manassas, VA, USA). C. acnes is a relatively slow-growing, typically aerotolerant anaerobic so all in vitro C. acnes experiments were performed under anaerobic conditions.
# as §2
# C. acnes HL038PA1 [16] = format: cell-based, Cutibacterium acnes
# Description: as §4, §2
# C. acnes ATCC11827 [17] = format: cell-based, Cutibacterium acnes
# Description: as §4, §2
# C. acnes HL013PA1 [18] = format: cell-based, Cutibacterium acnes
# Description: as §4, §2
# [19] = system: ten C. acnes clinical isolates and two C. acnes ATCC reference strains; format: cell-based, Cutibacterium acnes; details: for in vitro anti-bacterial activity against the C. acnes bacterial strains (in words): 0.5–32 μg/mL concentration range evaluated
# Description: as §4, §2
# C. acnes HL072PA1 [20] = format: cell-based, Cutibacterium acnes
# Description: as §4, §2
# C. acnes HL043PA2 [21] = format: cell-based, Cutibacterium acnes
# Description: as §4, §2
# C. acnes HL045PA1 [22] = format: cell-based, Cutibacterium acnes
# Description: as §4, §2
# C. acnes HL043PA1 [23] = format: cell-based, Cutibacterium acnes
# Description: as §4, §2
# C. acnes HL056PA1 [24] = format: cell-based, Cutibacterium acnes
# Description: as §4, §2
# C. acnes HL007PA1 [25] = format: cell-based, Cutibacterium acnes
# Description: as §4, §2
# C. acnes HL053PA1 [26] = format: cell-based, Cutibacterium acnes
# Description: as §4, §2
# C. acnes HL082PA2 [27] = format: cell-based, Cutibacterium acnes
# Description: as §4, §2
smiles,measurement,setting,value
"CCC[C@@H]1C[C@@H](C(=O)N[C@@H]([C@H]2O[C@H](SC)[C@H](O)[C@@H](O)[C@H]2O)[C@H](C)Cl)N(C)C1 [Clind, clindamycin]","Antibiotic Sensitivity, Clind",C. acnes ATCC6919 [1],"S (S, sensitive)"
same,"Antibiotic Sensitivity, Clind",C. acnes HL038PA1 [2],R (Antibiotic resistance to clindamycin defined by MIC ≥ 32 μg/mL)
same,"Antibiotic Sensitivity, Clind",C. acnes ATCC11827 [3],"S (S, sensitive)"
same,"Antibiotic Sensitivity, Clind",C. acnes HL013PA1 [4],R (Antibiotic resistance to clindamycin defined by MIC ≥ 32 μg/mL)
same,"Antibiotic Sensitivity, Clind",C. acnes HL072PA1 [5],R (Antibiotic resistance to clindamycin defined by MIC ≥ 32 μg/mL)
same,"Antibiotic Sensitivity, Clind",C. acnes HL043PA2 [6],R (Antibiotic resistance to clindamycin defined by MIC ≥ 32 μg/mL)
same,"Antibiotic Sensitivity, Clind",C. acnes HL045PA1 [7],R (Antibiotic resistance to clindamycin defined by MIC ≥ 32 μg/mL)
same,"Antibiotic Sensitivity, Clind",C. acnes HL043PA1 [8],R (Antibiotic resistance to clindamycin defined by MIC ≥ 32 μg/mL)
same,"Antibiotic Sensitivity, Clind",C. acnes HL056PA1 [9],R (Antibiotic resistance to clindamycin defined by MIC ≥ 32 μg/mL)
same,"Antibiotic Sensitivity, Clind",C. acnes HL007PA1 [10],R (Antibiotic resistance to clindamycin defined by MIC ≥ 32 μg/mL)
same,"Antibiotic Sensitivity, Clind",C. acnes HL053PA1 [11],R (Antibiotic resistance to clindamycin defined by MIC ≥ 32 μg/mL)
same,"Antibiotic Sensitivity, Clind",C. acnes HL082PA2 [12],"S (S, sensitive)"
"CC[C@H](C)[C@@H]1NC(=O)CNC(=O)[C@H](CCCCN)NC(=O)[C@H](Cc2ccc(O)cc2)NC(=O)[C@@H]2CSSC[C@H](NC1=O)C(=O)N[C@@H](Cc1ccccc1)C(=O)N[C@@H](CCCCN)C(=O)N[C@@H](CCCCN)C(=O)N[C@H](C(=O)N[C@@H](CCCCN)C(N)=O)CSSC[C@H](NC(=O)[C@H](Cc1ccccc1)NC(=O)[C@@H](N)CCCNC(=N)N)C(=O)N[C@@H](Cc1c[nH]c3ccccc13)C(=O)N[C@@H](CCCCN)C(=O)N[C@@H](C(C)C)C(=O)N2 [RP557] (H-RFCWKVCYKGICFKKCK-NH2; disulfide 3-16, 7-12)",Therapeutic Index (EC10 / MIC),[13]; keratinocyte EC10 (8 h) versus MIC against HL043PA2 C. acnes,30.8
same,Therapeutic Index (EC50 / MIC),[13]; keratinocyte EC50 (8 h) versus MIC against HL043PA2 C. acnes,35 and 35.1
same,viability of human keratinocytes,"[14]; 8 h incubation at 256 μg/mL, bioluminescent HaCaT",greater than 80%
same,"EC10, concentration required to kill 10% of human keratinocytes","[14]; bioluminescent HaCaT, 1 × 10^4 cells/well, 8 h incubation, 2-fold dilutions from 1024 µg/mL, triplicate, IVIS imaging, GraphPad Prism 7",246 µg/mL
same,MIC,"C. acnes ATCC6919 [15]; C. acnes ATCC6919, RCM broth, anaerobic, 1 × 10^6 CFU per mL, two-fold dilutions 0.5–32 μg/mL, 48 h, OD 600 nm, mean of three replicates",8 µg/mL
same,MIC,"C. acnes HL038PA1 [16]; C. acnes HL038PA1, RCM broth, anaerobic, 1 × 10^6 CFU per mL, two-fold dilutions 0.5–32 μg/mL, 48 h, OD 600 nm, mean of three replicates",8 µg/mL
same,MIC,"C. acnes ATCC11827 [17]; C. acnes ATCC11827, RCM broth, anaerobic, 1 × 10^6 CFU per mL, two-fold dilutions 0.5–32 μg/mL, 48 h, OD 600 nm, mean of three replicates",8 µg/mL
same,MIC,"C. acnes HL013PA1 [18]; C. acnes HL013PA1, RCM broth, anaerobic, 1 × 10^6 CFU per mL, two-fold dilutions 0.5–32 μg/mL, 48 h, OD 600 nm, mean of three replicates",2 µg/mL
same,in vitro anti-bacterial activity against the C. acnes bacterial strains (in words),[19],most active
same,MIC values against all C. acnes isolates,[19]; span over ten antibiotic resistant isolates and two ATCC reference strains,2 to 8 µg/mL
same,MIC,"C. acnes HL072PA1 [20]; C. acnes HL072PA1, RCM broth, anaerobic, 1 × 10^6 CFU per mL, two-fold dilutions 0.5–32 μg/mL, 48 h, OD 600 nm, mean of three replicates",8 µg/mL
same,MIC,"C. acnes HL043PA2 [21]; C. acnes HL043PA2 (multi-drug resistant), RCM broth, anaerobic, 1 × 10^6 CFU per mL, two-fold dilutions 0.5–32 μg/mL, 48 h, OD 600 nm, mean of three replicates",8 µg/mL
same,MIC,"C. acnes HL045PA1 [22]; C. acnes HL045PA1, RCM broth, anaerobic, 1 × 10^6 CFU per mL, two-fold dilutions 0.5–32 μg/mL, 48 h, OD 600 nm, mean of three replicates",4 µg/mL
same,MIC,"C. acnes HL043PA1 [23]; C. acnes HL043PA1, RCM broth, anaerobic, 1 × 10^6 CFU per mL, two-fold dilutions 0.5–32 μg/mL, 48 h, OD 600 nm, mean of three replicates",8 µg/mL
same,MIC,"C. acnes HL056PA1 [24]; C. acnes HL056PA1, RCM broth, anaerobic, 1 × 10^6 CFU per mL, two-fold dilutions 0.5–32 μg/mL, 48 h, OD 600 nm, mean of three replicates",4 µg/mL
same,MIC,"C. acnes HL007PA1 [25]; C. acnes HL007PA1, RCM broth, anaerobic, 1 × 10^6 CFU per mL, two-fold dilutions 0.5–32 μg/mL, 48 h, OD 600 nm, mean of three replicates",8 µg/mL
same,MIC,"C. acnes HL053PA1 [26]; C. acnes HL053PA1, RCM broth, anaerobic, 1 × 10^6 CFU per mL, two-fold dilutions 0.5–32 μg/mL, 48 h, OD 600 nm, mean of three replicates",4 µg/mL
same,MIC,"C. acnes HL082PA2 [27]; C. acnes HL082PA2, RCM broth, anaerobic, 1 × 10^6 CFU per mL, two-fold dilutions 0.5–32 μg/mL, 48 h, OD 600 nm, mean of three replicates",2 µg/mL
CC[C@H](C)[C@H](NC(=O)[C@H](CCCN)NC(=O)[C@H](CC(C)C)NC(=O)[C@H](CCCNC(=N)N)NC(=O)[C@@H](N)Cc1ccccc1)C(=O)N[C@@H](CCCCN)C(=O)N[C@@H](C)C(=O)N[C@@H](CCCN)C(=O)N[C@@H](CC(C)C)C(=O)N[C@@H](CCCCN)C(=O)N[C@H](C(=O)N[C@@H](CCCN)C(=O)N[C@H](C(=O)N[C@@H](CCCNC(=N)N)C(=O)N[C@@H](Cc1ccccc1)C(=O)N[C@@H](CCCCN)C(=O)N[C@@H](CC(C)C)C(N)=O)[C@@H](C)CC)C(C)C [RP568] (H-FRL[Orn]IKA[Orn]LKV[Orn]IRFKL-NH2),Therapeutic Index (EC50 / MIC),[13]; 8 h,7.16
same,"EC50, concentration required to kill 50% of human keratinocytes",[14]; 8 h,229 µg/mL
same,MIC,"C. acnes ATCC6919 [15]; ATCC6919, 48 h",>32 µg/mL
same,MIC,"C. acnes HL038PA1 [16]; HL038PA1, 48 h",>32 µg/mL
same,MIC,"C. acnes ATCC11827 [17]; ATCC11827, 48 h",>32 µg/mL
same,MIC,"C. acnes HL013PA1 [18]; HL013PA1, 48 h",>32 µg/mL
same,in vitro anti-bacterial activity against the C. acnes bacterial strains (in words),[19],negligible activity
same,MIC,"C. acnes HL072PA1 [20]; HL072PA1, 48 h",>32 µg/mL
same,MIC,"C. acnes HL043PA2 [21]; HL043PA2, 48 h",>32 µg/mL
same,MIC,"C. acnes HL045PA1 [22]; HL045PA1, 48 h",>32 µg/mL
same,MIC,"C. acnes HL043PA1 [23]; HL043PA1, 48 h",>32 µg/mL
same,MIC,"C. acnes HL056PA1 [24]; HL056PA1, 48 h",>32 µg/mL
same,MIC,"C. acnes HL007PA1 [25]; HL007PA1, 48 h",>32 µg/mL
same,MIC,"C. acnes HL053PA1 [26]; HL053PA1, 48 h",>32 µg/mL
same,MIC,"C. acnes HL082PA2 [27]; HL082PA2, 48 h",>32 µg/mL
